# Reference: ChEMBL document CHEMBL3885861, “Open TG-GATES”
# Species: Rattus norvegicus
# Experiment: Open TG-GATES - Regimen: Daily Repeat
# Assay type: toxicity, organism-based, Sprague-Dawley
# Parameters: regimen Daily Repeat, gender Male, age 6 weeks
# Conditions: in vivo, po, route gavage; for APTT / Bas / Eos / Fbg / Hb / Ht / Lym / MCH / MCHC / MCV / Mono / PT / Plat / RBC / Ret / WBC / Neu: tissue Blood; for ALP / ALT / BUN / CRE / DBIL / GLC / IP / K / LDH / Na / PL / RALB / TBIL / TC / TG / TP / gamma-GTP: tissue Plasma
# [1] = 0 mg/kg, 72 h, dose level Control, time 3 day
# [2] = 0 mg/kg, […], dose level Control, time 7 day
# [3] = 0 mg/kg, […], dose level Control, time 14 day
# [4] = 0 mg/kg, […], dose level Control, time 28 day
# [5] = 60 mg/kg, 72 h, dose level Low, time 3 day
# [6] = 60 mg/kg, […], dose level Low, time 7 day
# [7] = 60 mg/kg, […], dose level Low, time 14 day
# [8] = 60 mg/kg, […], dose level Low, time 28 day
structure (smiles),measurement,setting,value
CCN(CC)C(=S)SSC(=S)N(CC)CC,TERMINAL_BW,[1],228.6 g
same,APTT,[1],22.7 s
same,Bas,[1],0%
same,Eos,[1],0.8%
same,Fbg,[1],295 mg/dL
same,Hb,[1],12.5 g/dL
same,Ht,[1],38.7%
same,Lym,[1],81.8%
same,MCH,[1],20.5 pg
same,MCHC,[1],32.2%
same,MCV,[1],63.6 fL
same,Mono,[1],2.4%
same,PT,[1],16.3 s
same,Plat,[1],112 x10_4/uL
same,RBC,[1],609 x10_4/ul
same,Ret,[1],7%
same,WBC,[1],78.4 x10_2/uL
same,ALP,[1],1421 IU/L
same,ALT,[1],42.6 IU/L
same,BUN,[1],17.6 mg/dL
same,CRE,[1],0.2 mg/dL
same,DBIL,[1],0 mg/dL
same,GLC,[1],192.2 mg/dL
same,IP,[1],7.8 mg/dL
same,K,[1],4.2 meq/L
same,LDH,[1],190.4 IU/L
same,Na,[1],142.6 meq/L
same,PL,[1],136.8 mg/dL
same,RALB,[1],3.1 g/dL
same,TBIL,[1],0.002 mg/dL
same,TC,[1],73.4 mg/dL
same,TG,[1],91.6 mg/dL
same,TP,[1],5.5 g/dL
same,gamma-GTP,[1],1.4 IU/L
same,TERMINAL_BW,[2],265.7 g
same,TERMINAL_BW,[3],313.3 g
same,TERMINAL_BW,[4],364.4 g
same,APTT,[2],22.1 s
same,Bas,[2],0%
same,Eos,[2],0.8%
same,Fbg,[2],315 mg/dL
same,Hb,[2],12.8 g/dL
same,Ht,[2],39.2%
same,Lym,[2],82%
same,MCH,[2],20.3 pg
same,MCHC,[2],32.6%
same,MCV,[2],62.3 fL
same,Mono,[2],2.8%
same,PT,[2],16.4 s
same,Plat,[2],116.8 x10_4/uL
same,RBC,[2],629 x10_4/ul
same,Ret,[2],6.3%
same,WBC,[2],134.5 x10_2/uL
same,APTT,[3],23.7 s
same,Bas,[3],0%
same,Eos,[3],1%
same,Fbg,[3],311.2 mg/dL
same,Hb,[3],13.9 g/dL
same,Ht,[3],41.2%
same,Lym,[3],82.4%
same,MCH,[3],20.1 pg
same,MCHC,[3],33.9%
same,MCV,[3],59.4 fL
same,Mono,[3],2%
same,Neu,[3],13.4%
same,PT,[3],16.3 s
same,Plat,[3],112 x10_4/uL
same,RBC,[3],693.4 x10_4/ul
same,Ret,[3],4.9%
same,WBC,[3],133.7 x10_2/uL
same,APTT,[4],24.8 s
same,Bas,[4],0%
same,Eos,[4],1.2%
same,Fbg,[4],321.4 mg/dL
same,Hb,[4],15.2 g/dL
same,Ht,[4],44.8%
same,Lym,[4],83.2%
same,MCH,[4],19.5 pg
same,MCHC,[4],34%
same,MCV,[4],57.5 fL
same,Mono,[4],2.2%
same,Neu,[4],12.2%
same,PT,[4],16.6 s
same,Plat,[4],98.2 x10_4/uL
same,RBC,[4],780.6 x10_4/ul
same,Ret,[4],2.8%
same,WBC,[4],121 x10_2/uL
same,ALP,[2],1448.6 IU/L
same,ALT,[2],43.6 IU/L
same,BUN,[2],17.4 mg/dL
same,CRE,[2],0.2 mg/dL
same,DBIL,[2],0 mg/dL
same,GLC,[2],203.8 mg/dL
same,IP,[2],7.9 mg/dL
same,K,[2],4.5 meq/L
same,LDH,[2],223 IU/L
same,Na,[2],142 meq/L
same,PL,[2],138.4 mg/dL
same,RALB,[2],3.1 g/dL
same,TBIL,[2],0.008 mg/dL
same,TC,[2],71.4 mg/dL
same,TG,[2],106.6 mg/dL
same,TP,[2],5.5 g/dL
same,gamma-GTP,[2],2.2 IU/L
same,ALP,[3],1430.8 IU/L
same,ALT,[3],45 IU/L
same,BUN,[3],20.8 mg/dL
same,CRE,[3],0.2 mg/dL
same,DBIL,[3],0 mg/dL
same,GLC,[3],204.2 mg/dL
same,IP,[3],7.4 mg/dL
same,K,[3],4.4 meq/L
same,LDH,[3],167 IU/L
same,Na,[3],141.2 meq/L
same,PL,[3],143 mg/dL
same,RALB,[3],3.2 g/dL
same,TBIL,[3],0 mg/dL
same,TC,[3],73.6 mg/dL
same,TG,[3],91.4 mg/dL
same,TP,[3],5.8 g/dL
same,gamma-GTP,[3],2.6 IU/L
same,ALP,[4],1127.4 IU/L
same,ALT,[4],35 IU/L
same,BUN,[4],18.4 mg/dL
same,CRE,[4],0.2 mg/dL
same,DBIL,[4],0 mg/dL
same,GLC,[4],202.8 mg/dL
same,IP,[4],6.8 mg/dL
same,K,[4],4 meq/L
same,LDH,[4],154.8 IU/L
same,Na,[4],143.2 meq/L
same,PL,[4],145 mg/dL
same,RALB,[4],3.2 g/dL
same,TBIL,[4],0.014 mg/dL
same,TC,[4],76 mg/dL
same,TG,[4],113.4 mg/dL
same,TP,[4],6 g/dL
same,gamma-GTP,[4],2.6 IU/L
same,TERMINAL_BW,[5],224.7 g
same,APTT,[5],21.1 s
same,Bas,[5],0%
same,Eos,[5],0.6%
same,Fbg,[5],308.2 mg/dL
same,Hb,[5],12.3 g/dL
same,Ht,[5],38.1%
same,MCH,[5],19.7 pg
same,MCHC,[5],32.2%
same,MCV,[5],61.2 fL
same,Mono,[5],2.2%
same,PT,[5],15.9 s
same,Plat,[5],113.7 x10_4/uL
same,RBC,[5],624.4 x10_4/ul
same,Ret,[5],4.6%
same,WBC,[5],88.7 x10_2/uL
same,ALP,[5],1308.8 IU/L
same,ALT,[5],45.4 IU/L
same,BUN,[5],17.8 mg/dL
same,CRE,[5],0.2 mg/dL
same,DBIL,[5],0 mg/dL
same,GLC,[5],178.8 mg/dL
same,IP,[5],7 mg/dL
same,K,[5],4.1 meq/L
same,LDH,[5],188 IU/L
same,Na,[5],143.6 meq/L
same,PL,[5],151.6 mg/dL
same,RALB,[5],3.1 g/dL
same,TBIL,[5],0.004 mg/dL
same,TC,[5],86.2 mg/dL
same,TG,[5],83 mg/dL
same,TP,[5],5.5 g/dL
same,gamma-GTP,[5],1.6 IU/L
same,TERMINAL_BW,[6],255.2 g
same,TERMINAL_BW,[7],296.1 g
same,TERMINAL_BW,[8],358.2 g
same,APTT,[6],21.7 s
same,Bas,[6],0%
same,Eos,[6],0.6%
same,Fbg,[6],312.8 mg/dL
same,Hb,[6],12.4 g/dL
same,Ht,[6],38.4%
same,MCH,[6],20.1 pg
same,MCHC,[6],32.3%
same,MCV,[6],62.1 fL
same,Mono,[6],2.4%
same,PT,[6],16 s
same,Plat,[6],129.8 x10_4/uL
same,RBC,[6],620.4 x10_4/ul
same,Ret,[6],7.5%
same,WBC,[6],137.8 x10_2/uL
same,APTT,[7],23.8 s
same,Bas,[7],0%
same,Eos,[7],1%
same,Fbg,[7],319.4 mg/dL
same,Hb,[7],13.9 g/dL
same,Ht,[7],40.9%
same,MCH,[7],19.7 pg
same,MCHC,[7],33.8%
same,MCV,[7],58.2 fL
same,Mono,[7],2.8%
same,PT,[7],16.1 s
same,Plat,[7],124.6 x10_4/uL
same,RBC,[7],704.6 x10_4/ul
same,Ret,[7],5.1%
same,WBC,[7],126 x10_2/uL
same,APTT,[8],24 s
same,Bas,[8],0%
same,Eos,[8],1%
same,Fbg,[8],329.2 mg/dL
same,Hb,[8],14.2 g/dL
same,Ht,[8],41.1%
same,MCH,[8],19.2 pg
same,MCHC,[8],34.7%
same,MCV,[8],55.4 fL
same,Mono,[8],2.2%
same,PT,[8],16.5 s
same,Plat,[8],108.8 x10_4/uL
same,RBC,[8],742.2 x10_4/ul
same,Ret,[8],3.3%
same,WBC,[8],116.8 x10_2/uL
same,ALP,[6],991.6 IU/L
same,ALT,[6],37.4 IU/L
same,BUN,[6],16.8 mg/dL
same,CRE,[6],0.2 mg/dL
same,DBIL,[6],0 mg/dL
same,GLC,[6],183 mg/dL
same,IP,[6],7 mg/dL
same,K,[6],4.4 meq/L
same,LDH,[6],217.8 IU/L
same,Na,[6],143.6 meq/L
same,PL,[6],142.4 mg/dL
same,RALB,[6],3 g/dL
same,TBIL,[6],0.012 mg/dL
same,TC,[6],78.4 mg/dL
same,TG,[6],64.2 mg/dL
same,TP,[6],5.5 g/dL
same,gamma-GTP,[6],1.8 IU/L
same,ALP,[7],1244.8 IU/L
same,ALT,[7],37.6 IU/L
same,BUN,[7],18.6 mg/dL
same,CRE,[7],0.2 mg/dL
same,DBIL,[7],0 mg/dL
same,GLC,[7],178 mg/dL
same,IP,[7],6.2 mg/dL
same,K,[7],4.1 meq/L
same,LDH,[7],146.8 IU/L
same,Na,[7],142 meq/L
same,PL,[7],165.2 mg/dL
same,RALB,[7],3.2 g/dL
same,TBIL,[7],0.004 mg/dL
same,TC,[7],92.4 mg/dL
same,TG,[7],70.6 mg/dL
same,TP,[7],5.9 g/dL
same,gamma-GTP,[7],2.8 IU/L
same,ALP,[8],808.4 IU/L
same,ALT,[8],36 IU/L
same,CRE,[8],0.2 mg/dL
same,DBIL,[8],0 mg/dL
same,GLC,[8],183.4 mg/dL
same,IP,[8],5.8 mg/dL
same,K,[8],4 meq/L
same,LDH,[8],106.2 IU/L
same,Na,[8],142.4 meq/L
same,PL,[8],150.2 mg/dL
same,RALB,[8],3 g/dL
same,TBIL,[8],0.018 mg/dL
same,TC,[8],87.2 mg/dL
